Among the test systems are RPMI-8226 leukemia; NCI-H23 lung; EKVX NSCLC; COLO 205 colon; MDA-MB-231 breast; DU-145 prostate; HCT-116 colon; MCF7 breast; OVCAR-8 ovarian; OVCAR-3 ovarian.
Common to all, as to test: NCI tumour cell line growth inhibition, 48 h

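Five concentrations, 48 hours, 96-well plates. Here, GI50 denotes the concentration required for 50% inhibition of growth. At the TGI there is no net growth.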 Some results are limits rather than exact numbers.

Take `Cc1cccc2c1[nH]c(=O)c1c3ccccc3cn21`: the GI50 in the assay with RPMI-8226 leukemia is 2 µM; in the assay on NCI-H23 lung it was 17.2 µM; in the assay on EKVX NSCLC, 5.61 µM; in the assay with COLO 205 colon it was 7.33 µM; in the assay on MDA-MB-231 breast it was 2.42 µM; in the assay with DU-145 prostate, 5.26 µM. Besides, the GI50 was 2.69 µM with HCT-116 colon, 3.57 µM in the assay with OVCAR-8 ovarian and 4.78 µM in the assay on OVCAR-3 ovarian. Besides, the TGI in the assay on RPMI-8226 leukemia came to 7.15 µM; in the assay with NCI-H23 lung, 38.6 µM; with EKVX NSCLC, 44.6 µM; with COLO 205 colon it was 34.8 µM; in the assay on MDA-MB-231 breast it was 17.5 µM; with DU-145 prostate, 17.6 µM. Moreover, the TGI was 11.7 µM with HCT-116 colon, 12.5 µM in the assay with MCF7 breast, more than 100 µM in the assay on OVCAR-8 ovarian and 28.2 µM in the assay on OVCAR-3 ovarian.
As to `CS(=O)(=O)N(c1cc(-c2ccc3ncnc(Nc4ccc(F)c(Cl)c4)c3c2)cnc1Cl)S(C)(=O)=O`, the GI50 with RPMI-8226 leukemia is 0.826 µM; in the assay with NCI-H23 lung it was 0.861 µM; in the assay with EKVX NSCLC, 0.649 µM; with COLO 205 colon, 1.32 µM; in the assay on MDA-MB-231 breast, 1.75 µM; in the assay with DU-145 prostate, 1.18 µM. Besides, the GI50 with HCT-116 colon was 1.68 µM; with MCF7 breast, 0.246 µM; with OVCAR-8 ovarian, 2.17 µM; in the assay on OVCAR-3 ovarian, 0.728 µM. Also, the TGI was 3.98 µM in the assay on RPMI-8226 leukemia; 5.15 µM in the assay on NCI-H23 lung; 5.19 µM in the assay on EKVX NSCLC; 5.93 µM with COLO 205 colon; 9.65 µM with MDA-MB-231 breast; 24.9 µM in the assay with DU-145 prostate. The TGI in the assay on HCT-116 colon was found to be 6.7 µM; with MCF7 breast, 3.58 µM; in the assay on OVCAR-8 ovarian, 15.5 µM; in the assay with OVCAR-3 ovarian, 4.24 µM.
Regarding `CC[C@H](C)[C@H](NC(=O)c1cccn1C)C(=O)N(C)[C@H](C[C@@H](OC(C)=O)c1nc(C(=O)N[C@@H](Cc2ccccc2)C[C@H](C)C(=O)OC)cs1)C(C)C`, the GI50 with RPMI-8226 leukemia is 0.129 µM; in the assay with NCI-H23 lung, 0.216 µM; in the assay with EKVX NSCLC, 0.543 µM; with COLO 205 colon it was 0.15 µM; in the assay on MDA-MB-231 breast, 0.364 µM; in the assay on DU-145 prostate it was 0.348 µM. In addition, the GI50 was 0.127 µM in the assay on HCT-116 colon, 0.0807 µM with MCF7 breast, 0.354 µM with OVCAR-8 ovarian and 0.0809 µM with OVCAR-3 ovarian. Moreover, the TGI is more than 18.8 µM in the assay on RPMI-8226 leukemia; more than 33.3 µM with NCI-H23 lung; more than 33.3 µM with EKVX NSCLC; 0.576 µM in the assay with COLO 205 colon; 5.75 µM in the assay with MDA-MB-231 breast; more than 33.3 µM in the assay on DU-145 prostate. Moreover, the TGI in the assay with HCT-116 colon is more than 11.3 µM; in the assay on MCF7 breast, more than 33.3 µM; in the assay on OVCAR-8 ovarian it was more than 33.3 µM; in the assay with OVCAR-3 ovarian, 0.272 µM.
For the compound `COc1ccc(S(=O)(=O)N(C(C)=O)c2ccccc2/C=C/c2cc[n+]([O-])cc2)cc1`, the GI50 in the assay with RPMI-8226 leukemia is 0.953 µM; with NCI-H23 lung it was 1.22 µM; with EKVX NSCLC it was 1.02 µM; in the assay on COLO 205 colon, 0.529 µM; in the assay on MDA-MB-231 breast it was 1.26 µM; in the assay with DU-145 prostate, 0.813 µM. Besides, the GI50 is 0.542 µM with HCT-116 colon, 0.428 µM with MCF7 breast, 1.11 µM in the assay on OVCAR-8 ovarian and 0.371 µM with OVCAR-3 ovarian. The TGI with RPMI-8226 leukemia was more than 10 µM; with NCI-H23 lung, more than 10 µM; with EKVX NSCLC, more than 10 µM; in the assay with COLO 205 colon, 2.3 µM; in the assay on MDA-MB-231 breast it was more than 10 µM; in the assay with DU-145 prostate it was more than 10 µM. Moreover, the TGI in the assay with HCT-116 colon was more than 10 µM; in the assay on MCF7 breast, more than 10 µM; with OVCAR-8 ovarian it was more than 10 µM; in the assay with OVCAR-3 ovarian it was 1.57 µM.
Regarding `N#Cc1cccc(N2C(=O)C3C4C=CC(C3C2=O)C2C(=O)N(c3cccc(C#N)c3)C(=O)C42)c1` (centres undefined), the TGI with RPMI-8226 leukemia is more than 56.2 µM; in the assay on NCI-H23 lung, 52.5 µM; in the assay on EKVX NSCLC it was more than 100 µM; with COLO 205 colon, more than 63.1 µM; in the assay with MDA-MB-231 breast it was more than 100 µM; with DU-145 prostate, more than 100 µM. In addition, the TGI in the assay on HCT-116 colon is 31.6 µM; in the assay on MCF7 breast, more than 100 µM; in the assay with OVCAR-8 ovarian it was more than 63.1 µM; in the assay with OVCAR-3 ovarian, more than 100 µM.
For `N#Cc1cccc(C2C3=C(COC3=O)N(CCO)c3cc4c(cc32)OCO4)c1` (centres undefined), the GI50 in the assay on RPMI-8226 leukemia was 1.79 µM; with NCI-H23 lung, 3.58 µM; in the assay with EKVX NSCLC, 2.78 µM; with COLO 205 colon it was 1.58 µM; with MDA-MB-231 breast it was 2.42 µM; in the assay on DU-145 prostate, 3 µM. In addition, the GI50 in the assay on HCT-116 colon was 1.43 µM; with MCF7 breast, 0.942 µM; in the assay on OVCAR-8 ovarian it was 2.88 µM; with OVCAR-3 ovarian it was 1.35 µM. For the same compound, the TGI in the assay with RPMI-8226 leukemia, with NCI-H23 lung, in the assay on EKVX NSCLC, with COLO 205 colon, with MDA-MB-231 breast and in the assay on DU-145 prostate was more than 50 µM each time. For the same compound, the TGI in the assay on HCT-116 colon, in the assay on MCF7 breast, in the assay on OVCAR-8 ovarian and in the assay on OVCAR-3 ovarian was more than 50 µM in each case.
